# Data as given in article PMC6017415, “Carbamates as Potential Prodrugs and a New Warhead for HDAC Inhibition” (Molecules : A Journal of Synthetic Chemistry and Natural …, 2018).
# “And” between values parts separate entries of the source, which are not always exact repeats. Equal entries are not always repeated. Structures can show the parent of a compound that is named as a salt.
# Assays:
# recombinant human HDAC1 = target: T1, recombinant human HDAC1 (Homo sapiens, UniProt Q13547); test: HDAC1 in vitro fluorescence-based inhibition assay (ZMAL substrate); format: biochemical; conditions: recombinant human HDAC1, ZMAL 10.5 µM, 90 min 37 °C; read-out: IC50 (µM) ± SE HDAC1
# T1 construct: purchased BPS Biosciences (San Diego, CA, USA)
# T1 sequence (Q13547 whole entry): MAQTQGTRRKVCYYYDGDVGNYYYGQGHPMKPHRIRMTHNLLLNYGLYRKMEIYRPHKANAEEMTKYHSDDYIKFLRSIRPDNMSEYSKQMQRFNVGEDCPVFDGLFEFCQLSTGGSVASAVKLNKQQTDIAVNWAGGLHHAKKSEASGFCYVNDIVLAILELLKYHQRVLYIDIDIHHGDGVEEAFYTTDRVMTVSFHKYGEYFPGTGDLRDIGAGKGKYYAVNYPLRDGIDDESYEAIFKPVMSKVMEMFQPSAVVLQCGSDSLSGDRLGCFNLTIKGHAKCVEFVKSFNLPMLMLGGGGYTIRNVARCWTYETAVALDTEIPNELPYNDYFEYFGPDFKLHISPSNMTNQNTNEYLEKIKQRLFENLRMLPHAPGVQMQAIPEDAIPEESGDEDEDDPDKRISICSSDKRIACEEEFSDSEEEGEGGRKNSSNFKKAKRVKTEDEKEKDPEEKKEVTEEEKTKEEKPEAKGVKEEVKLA
# Excerpt: (§1) In order to investigate a potential subtype selectivity among different HDAC classes, we first tested them against the recombinant histone deacetylases HDAC1 (class I) and HDAC6 (class llb). […] To further address this issue, we also tested the respective compounds against the class l histone deacetylase HDAC8 (also see Table 1).
# (§2) Recombinant human HDAC1 and 6 were purchased from BPS Biosciences (San Diego, CA, USA), and recombinant human HDAC8 was produced as described before. Inhibition tests of human HDAC1 and 6 were conducted using carboxybenzyl acetyllysine aminomethylcoumarin (ZMAL) as a substrate. […] For testing of HDAC8, the commercial Fluor de Lys drug discovery kit (BML-KI178) (Enzo Life Sciences, Lausen, Switzerland) was used according to the manufacturer’s instruction. Briefly, the test compound, Fluor de Lys-HDAC8 substrate (50 μM), and enzyme were incubated for 90 min at 37 °C with subsequent addition of 50 μL of Developer II (BML-KI176) (Enzo Life Sciences, Lausen, Switzerland) and further incubation for 45 min at 30 °C. In both assays, trichostatin A (2 μM) was used to stop the reaction. Fluorescence in both cases was measured in a plate reader (BMG Polarstar, BMG Labtech, Ortenberg, Germany) with excitation at λ = 390 nm and emission at λ = 460 nm.
# U937 cells = test: Cell proliferation assay (CellTiter 96 AQueous) in U937 cells; conditions: Homo sapiens, U-937, 72 h, read-out: GI50 (µM) ± SE U937
# Method: (§3) To further investigate the inhibition properties of the carbamates, we tested their antiproliferative activity on human promyelocytic leukemia cells (HL60) and on human histiocytic lymphoma cells (U937).
# (§4) HL60 or U937 cells were seeded in 96-well tissue culture plates at a density of 5 × 10^4 cells per well. Cells were immediately incubated with inhibitors. As these cells already differentiate with 1% DMSO content, inhibitors were prepared as 200× stock solutions in DMSO. In all cases, inhibitors were compared to DMSO vehicle only, and three replicates per concentration were used. Growth inhibition was determined using the CellTiter 96® AQueous Non-Radioactive Cell Proliferation Assay according to the manufacturer’s instructions. Briefly, 5 × 10^4 of HL60 or U937 cells per well were treated with DMSO stocks of the respective inhibitors or with DMSO in 100 µL cell culture medium and incubated for 72 h at 37 °C and 5% CO2 in transparent 96-well microtiter plates (PAA). Subsequently, 20 µL of the detection reagent (containing a tetrazolium salt) was added to each well and incubated for 4 more hours under the same conditions. After this time, absorption was measured at a wavelength of 490 nm (BMG Polarstar, BMG Labtech, Ortenberg, Germany).
# [1] = system: HDAC activity in HL60 cells; test: Cellular HDAC inhibition assay (MAL substrate) in HL60 cells; conditions: Homo sapiens, HL-60, read-out: IC50 (µM) ± SE cellular HDAC inhibition HL60
# Method: (§5) Therefore, we decided to adapt this assay for a cellular setting allowing us to verify the previous results by assessing HDAC inhibition in the human leukemia cell lines HL60 and U937 (see the right side of Table 2).
# (§6) After 2 h of incubation, 50 µL substrate solution were added, containing tert-butyloxycarbonyl acetyl lysine aminomethylcoumarin (MAL) as a substrate (300 µM final assay concentration) and IGEPAL CA-630 (final concentration 0.05%). After 2 more hours of incubation at 37 °C and 5% CO2, 50 µL stop solution consisting of 0.5 µL TSA (100 µM) and 5 µL trypsin solution (10 mg/mL) in 44.5 µL cell buffer were added. This mixture was incubated for a further 20 min at 37 °C. Fluorescence was measured in a plate reader (BMG Polarstar) with excitation at λ = 390 nm and emission at λ = 460 nm.
# recombinant human HDAC8 = target: T2, recombinant human HDAC8 (Homo sapiens, UniProt Q9BY41); test: HDAC8 in vitro inhibition assay (Fluor de Lys kit); format: biochemical; conditions: for inhibition at 100 µM: read-out: Inhibition (%) @ Conc. (µM) HDAC8
# T2 construct: made in house
# T2 sequence (Q9BY41 1-377): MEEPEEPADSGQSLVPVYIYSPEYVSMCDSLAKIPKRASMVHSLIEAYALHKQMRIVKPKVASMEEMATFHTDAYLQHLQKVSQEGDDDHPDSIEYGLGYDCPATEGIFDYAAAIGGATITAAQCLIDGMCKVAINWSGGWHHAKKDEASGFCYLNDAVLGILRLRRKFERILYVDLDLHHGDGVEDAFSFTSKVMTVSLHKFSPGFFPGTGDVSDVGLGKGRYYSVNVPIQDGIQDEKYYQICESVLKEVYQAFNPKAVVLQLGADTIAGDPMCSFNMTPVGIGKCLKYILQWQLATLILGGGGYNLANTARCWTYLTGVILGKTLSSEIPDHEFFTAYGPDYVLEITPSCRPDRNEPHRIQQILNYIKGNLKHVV
# Excerpt: as §1, §2
# recombinant human HDAC6 = target: T3, recombinant human HDAC6 (Homo sapiens, UniProt Q9UBN7); test: HDAC6 in vitro fluorescence-based inhibition assay (ZMAL substrate); format: biochemical; conditions: recombinant human HDAC6, ZMAL 10.5 µM, 90 min 37 °C; read-out: IC50 (µM) ± SE HDAC6
# T3 construct: purchased BPS Biosciences (San Diego, CA, USA)
# T3 sequence (Q9UBN7 1-1215): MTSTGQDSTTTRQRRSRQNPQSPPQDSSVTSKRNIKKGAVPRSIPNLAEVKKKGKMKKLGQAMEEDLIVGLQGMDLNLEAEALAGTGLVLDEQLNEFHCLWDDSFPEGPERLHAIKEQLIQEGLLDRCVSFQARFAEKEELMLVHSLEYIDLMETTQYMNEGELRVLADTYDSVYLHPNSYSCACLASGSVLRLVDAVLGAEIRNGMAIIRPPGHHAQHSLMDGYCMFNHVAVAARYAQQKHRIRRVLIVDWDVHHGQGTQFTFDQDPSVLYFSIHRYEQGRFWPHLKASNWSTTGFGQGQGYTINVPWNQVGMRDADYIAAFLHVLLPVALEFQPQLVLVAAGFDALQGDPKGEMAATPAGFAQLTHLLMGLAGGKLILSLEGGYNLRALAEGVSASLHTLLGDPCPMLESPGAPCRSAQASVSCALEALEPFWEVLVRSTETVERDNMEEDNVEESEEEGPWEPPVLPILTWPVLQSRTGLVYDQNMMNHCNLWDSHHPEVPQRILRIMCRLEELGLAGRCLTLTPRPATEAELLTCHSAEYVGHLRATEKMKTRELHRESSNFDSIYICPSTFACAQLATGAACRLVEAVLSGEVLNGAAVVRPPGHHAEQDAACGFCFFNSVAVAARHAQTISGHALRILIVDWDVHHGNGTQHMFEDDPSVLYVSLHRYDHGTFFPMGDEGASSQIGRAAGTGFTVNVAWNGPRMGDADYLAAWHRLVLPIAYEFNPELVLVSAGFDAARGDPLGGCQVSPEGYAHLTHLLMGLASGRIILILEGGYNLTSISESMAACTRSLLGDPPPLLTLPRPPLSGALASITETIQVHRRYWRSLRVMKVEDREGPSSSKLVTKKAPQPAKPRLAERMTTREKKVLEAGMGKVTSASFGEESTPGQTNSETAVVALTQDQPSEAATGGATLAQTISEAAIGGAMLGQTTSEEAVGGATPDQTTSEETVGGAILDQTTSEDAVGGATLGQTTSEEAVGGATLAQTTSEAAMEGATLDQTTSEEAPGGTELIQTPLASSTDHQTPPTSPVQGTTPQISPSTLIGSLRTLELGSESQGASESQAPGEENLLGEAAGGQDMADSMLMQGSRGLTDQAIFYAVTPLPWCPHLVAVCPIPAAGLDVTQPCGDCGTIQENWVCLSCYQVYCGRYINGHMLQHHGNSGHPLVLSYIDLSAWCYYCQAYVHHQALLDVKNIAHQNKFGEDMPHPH
# Excerpt: as §1, §2
# [2] = system: HDAC activity in U937 cells; test: Cellular HDAC inhibition assay (MAL substrate) in U937 cells; conditions: Homo sapiens, U-937, read-out: IC50 (µM) ± SE cellular HDAC inhibition U937
# Method: as §5, §6
# [3] = Stability analysis under in vitro assay conditions, HPLC quantification of released hydroxamic acid; format: physicochemical; conditions: in vitro assay conditions without substrate, HDAC1 present, compound 2.4 mM, 90 min 37 °C
# Method: In order to address the question if the newly-synthesized carbamates are hydrolyzed during the assay procedure or if they really serve as HDAC inhibitors themselves, stability stress tests were performed. For this purpose, the compounds were subjected to the standard in vitro assay conditions, but without adding a substrate as, no enzyme conversion should be observed in these experiments. After 90 min of incubation at 37 °C, the release of SAHA of the different samples was detected and quantified via HPLC. This led to the finding that a release of SAHA could be detected for all samples (see Table 1). […] This means that the question if the carbamate scaffold represents a new warhead for HDAC inhibition or if the degradation to SAHA is solely responsible for the observed inhibitory effects cannot be resolved completely.
# To test the stability of Compound 9 under assay conditions, we also performed stability analysis with HPLC quantification. This experiment led to the finding that 8.7% of the carbamate 9 is degraded under release of bufexamac during incubation time. This fraction of released bufexamac may contribute to in vitro and cellular HDAC inhibition, but the observed selectivity profile of the carbamate in the in vitro assays clearly implies an intrinsic HDAC activity of carbamates.
# For stability tests, the carbamates were subjected to the described in vitro assay conditions (see above) without adding the substrate ZMAL and without the second incubation step with trypsin. Compounds were applied in a final concentration of 2.4 mM, and recombinant HDAC1 was used as the enzyme. After 90 min of incubation at 37 °C, the release of SAHA was detected via HPLC on an Agilent 1200 series device. The employed analytical column was a Kinetex 5u XB-C18, 100 Å, 250 × 4.6 mm (Phenomenex, Torrance, CA, USA) with the ReproSil 100 C18 5-µm precolumn (Jasco, Oklahoma City, OK, USA). The following conditions were applied: Eluent A: H2O containing 0.05% TFA, Eluent B: acetonitrile containing 0.05% TFA, linear gradient conditions (0–4 min, A = 90%, B = 10%; 4–29 min, linear increase to 100% of B; 29–31 min, B = 100%; 31.5–40 min, A = 10%, B = 90%); injection volume: 30 µL, flow rate: 1 mL/min; detection wavelength: λ = 254 nm. For evaluation, the ChemStation software from Agilent was used. To quantify the released amount of SAHA and bufexamac, calibration curves were plotted by incubating DMSO stocks of these compounds under in vitro assay conditions with final compound concentrations ranging from 1 µM–200 µM. HPLC analysis with the conditions described above led to the following equations: y = 13.935x − 27.918 for SAHA and y = 0.6099x + 1.1301 for bufexamac.
# HL60 cells = test: Cell proliferation assay (CellTiter 96 AQueous) in HL60 cells; conditions: Homo sapiens, HL-60, 72 h, read-out: GI50 (µM) ± SE HL60
# Method: as §3, §4
# [4] = system: acetylation of histone H3 and tubulin in HL60 cells; test: Western blot of acetylation levels of histone H3 and tubulin in HL60 cells; format: cell-based, human; conditions: 4 h
# Method: An inhibition of deacetylation in this experiment is expected to lead to hyperacetylation of the respective proteins. Besides histone H3, acetylated tubulin was chosen as a target protein. As tubulin is only accepted as a target by HDAC 6 [21], this allows us to explore subtype selectivity in a cellular setting (see Figure 4).
# HL60 cells were treated with the inhibitors in the given concentrations. Cells treated with dimethyl sulfoxide as a vehicle were used as controls. After an incubation time of 4 h, cells were transferred into 50-mL Falcon tubes and centrifuged (300× g, 5 min). The supernatant was removed, and the cells were washed with PBS, before they were transferred to 1.7-mL reaction tubes. The cells were lysated with Bio-Rad loading buffer, and the cell suspension was heated to 95 °C for 5 min. The proteins then were separated using a 15% SDS-polyacrylamide gel electrophoresis and transferred to a polyvinylidene fluoride (PVDF) membrane (Roti-PVDF, Carl Roth, Karlsruhe, Germany). Acetylation levels were detected using an anti-acetyl histone H3 antibody (Millipore, Billerica, MA, USA) and an anti-acetyl-α-tubulin antibody (Sigma Aldrich, St. Louis, MO, USA). An antibody directed against GAPDH (Sigma Aldrich) was used as a loading control.
IC50 (recombinant human HDAC1),GI50 (U937 cells),IC50 [1],inhibition at 100 µM (recombinant human HDAC8),IC50 (recombinant human HDAC6),IC50 [2],Release of SAHA (%) [3],GI50 (HL60 cells),"IC50 (recombinant human HDAC8; recombinant human HDAC8, Fluor de Lys-HDAC8 substrate 50 µM, 90 min 37 °C, read-out: IC50 (µM) ± SE HDAC8)",SMILES,effect on H3 and tubulin acetylation levels [4]
0.79 ± 0.01 µM,0.88 ± 0.13 µM,1.42 ± 0.53 µM,68%,0.58 ± 0.01 µM,2.07 ± 0.04 µM,14.5%,0.99 ± 0.17 µM,,"CCNC(=O)ONC(=O)CCCCCCC(=O)Nc1ccccc1 [Compound 2c, [(8-Anilino-8-oxo-octanoyl)amino]N-ethylcarbamate]",
5.1 µM and 5.09 µM,,22.4 ± 0.28 µM,,3.7 µM and 3.71 µM,,3.7%,25.9 ± 1.96 µM,,"O=C(CCCCCCC(=O)Nc1ccccc1)NOC(=O)N1CCNCC1 [Compound 7, [(8-Anilino-8-oxo-octanoyl)amino]piperazin-4-ium-1-carboxylate trifluoroacetate]",least effective substance
0.132 ± 0.001 µM,0.42 ± 0.13 µM,0.69 ± 0.004 µM,,0.187 ± 0.007 µM,0.71 ± 0.002 µM,4.6%,0.58 ± 0.05 µM,6.5 µM and 6.49 µM,"O=C(CCCCCCC(=O)Nc1ccccc1)NOC(=O)Nc1ccccc1 [Compound 2d, [(8-Anilino-8-oxo-octanoyl)amino]N-phenylcarbamate]",in the same range as SAHA
0.74 ± 0.01 µM,0.68 ± 0.09 µM,1.89 ± 0.04 µM,52%,0.637 ± 0.002 µM,3.02 ± 0.03 µM,0.5%,1.06 ± 0.11 µM,,"O=C(CCCCCCC(=O)Nc1ccccc1)NOC(=O)NCc1ccccc1 [Compound 2b, [(8-Anilino-8-oxo-octanoyl)amino]N-benzylcarbamate]",
